These results are taken from patent US12662464B2, “Degraders of cyclin-dependent kinase 12 (CDK12) and uses thereof” (DANA-FARBER CANCER INSTITUTE, INC., priority 2019, dated 2026).

One may read the Tmax as the time at which the peak concentration occurs.

Data set [1] concerns the target T1, CDK12 (Homo sapiens, UniProt Q9NYV4).
T1 construct: endogenous in cells; host or cells: Jurkat (human T-ALL)
The data set can be described thus: CDK12 degradation by Western blotting. Format: cell-based. The settings on record: degradation of CDK12 at 100 nM. On the procedure: Cells treated with DMSO or with the CDK12 degraders BSJ-04-023, BSJ-04-071, BSJ-04-076, BSJ-04-077, BSJ-04-078, BSJ-04-079, and BSJ-04-100 at the indicated concentrations were collected and examined with Western blots at 6 hours.
Cells treated with DMSO or with the CDK12 degraders BSJ-04-023, BSJ-04-086, BSJ-04-089, BSJ-04-098, BSJ-04-099, and BSJ-04-100 at the indicated concentrations were collected and examined with Western blots at 6 hours.
Assays for the degradation of CDK12 by exemplary compounds of Formula (I) were conducted. The results for the assays for the degradation of CDK12 by exemplary CDK12 degrader compounds depicted in Table 1 are shown in FIGS. 1-3.
Background: In western blotting, separated proteins are transferred to a membrane and probed.

The nature of data set [2]: Pharmacokinetic study, single IV injection in mice. In kind it is in vivo. The following applies: 2 mg/kg IV, male C57BI/6 mice, plasma. On the procedure: Standard pharmacokinetic parameters were determined by administration of exemplary compound BSJ-05-063 to male C57BI/6 mice, and conducting standard pharmacokinetic studies. A single 2 mg/kg intravenous (IV) injection of compound BSJ-05-063 solution in […] DMSO/Cremophor EL® (oxirane, propane-1,2,3-triol)/water was delivered, and the pharmacokinetic parameters were evaluated. The plasma concentrations of BSJ-05-063 were reported at each of the 8 time points (5 minutes, 15 minutes, 30 minutes, 1 hours, 2 hours, 4 hours, 6 hours, and 8 hours post-dosing) are the average values from 3 test animals (male C57BI/6 mice).

Data set [3] relates to CDK12, CDK13, CDK9. The experiment in a line: Rescue of degradation by pre-treatment, Western blot in Jurkat and Molt 4 cells. Format: cell-based, human. The settings on record: 2 hour pre-treatment with THZ-5-31, Carfilzomib, thalidomide or MLN4924, then 250 nM for 6 hours. On the procedure: FIGS. 1-3 show the degradation rescued by pre-treatment with Carlfilzomib and exemplary CDK12 irreversible inhibitor, THZ-5-31
The degradation of CDK12, CDK13, CDK9 was rescued by 2 hour pre-treatment with exemplary CDK12 inhibitor THZ-5-31, exemplary […] Carfilzomib (CFZ), thalidomide (Thal.) and MLN4924 (inhibitor of NEDD8-Activating Enzyme (NAE)) at the indicated concentrations before treatment with exemplary CDK12 inhibitor BSJ-0423 (BSJ-04-023) at 250 nM for 6 hours. BSJ-04-023 is of formula: […]

T1 sequence (Q9NYV4 whole entry): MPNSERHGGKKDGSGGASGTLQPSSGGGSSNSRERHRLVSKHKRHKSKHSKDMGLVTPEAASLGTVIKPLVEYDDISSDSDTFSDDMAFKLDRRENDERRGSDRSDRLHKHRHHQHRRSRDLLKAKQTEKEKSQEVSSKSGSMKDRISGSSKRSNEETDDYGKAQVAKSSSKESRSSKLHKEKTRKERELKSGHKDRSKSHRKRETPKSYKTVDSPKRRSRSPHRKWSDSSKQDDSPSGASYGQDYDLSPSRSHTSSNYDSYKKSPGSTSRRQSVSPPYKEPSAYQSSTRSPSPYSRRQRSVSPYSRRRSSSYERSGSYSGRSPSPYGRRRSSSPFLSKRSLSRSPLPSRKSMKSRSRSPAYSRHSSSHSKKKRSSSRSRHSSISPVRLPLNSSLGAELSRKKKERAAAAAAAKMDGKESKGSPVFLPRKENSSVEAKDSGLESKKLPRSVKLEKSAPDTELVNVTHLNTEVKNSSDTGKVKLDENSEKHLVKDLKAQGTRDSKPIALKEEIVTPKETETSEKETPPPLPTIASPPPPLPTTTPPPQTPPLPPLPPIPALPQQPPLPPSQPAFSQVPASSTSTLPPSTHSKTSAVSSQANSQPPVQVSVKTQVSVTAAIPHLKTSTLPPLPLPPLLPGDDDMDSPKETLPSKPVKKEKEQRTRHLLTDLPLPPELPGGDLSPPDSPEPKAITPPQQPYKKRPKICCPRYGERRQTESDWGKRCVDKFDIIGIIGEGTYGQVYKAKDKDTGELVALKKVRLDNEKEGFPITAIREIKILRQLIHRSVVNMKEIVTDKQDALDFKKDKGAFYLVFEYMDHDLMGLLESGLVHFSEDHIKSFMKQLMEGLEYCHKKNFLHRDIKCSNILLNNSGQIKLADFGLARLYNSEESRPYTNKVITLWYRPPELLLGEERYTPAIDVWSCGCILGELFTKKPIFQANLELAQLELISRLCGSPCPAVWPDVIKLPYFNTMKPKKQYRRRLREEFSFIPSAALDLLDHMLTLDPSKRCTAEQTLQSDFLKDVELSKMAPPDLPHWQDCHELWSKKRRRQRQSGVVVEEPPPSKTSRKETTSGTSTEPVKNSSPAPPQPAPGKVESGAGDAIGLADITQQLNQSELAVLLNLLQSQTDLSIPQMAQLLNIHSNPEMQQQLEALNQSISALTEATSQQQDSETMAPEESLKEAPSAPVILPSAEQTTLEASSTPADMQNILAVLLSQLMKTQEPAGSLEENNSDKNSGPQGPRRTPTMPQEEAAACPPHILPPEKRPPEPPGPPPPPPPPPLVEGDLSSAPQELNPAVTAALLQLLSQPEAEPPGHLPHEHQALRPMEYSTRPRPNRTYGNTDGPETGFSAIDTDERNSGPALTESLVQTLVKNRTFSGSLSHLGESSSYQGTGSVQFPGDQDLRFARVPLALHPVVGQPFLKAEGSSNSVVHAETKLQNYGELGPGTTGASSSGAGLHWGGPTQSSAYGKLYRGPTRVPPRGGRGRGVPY
T1 sequence (O75909 whole entry partner): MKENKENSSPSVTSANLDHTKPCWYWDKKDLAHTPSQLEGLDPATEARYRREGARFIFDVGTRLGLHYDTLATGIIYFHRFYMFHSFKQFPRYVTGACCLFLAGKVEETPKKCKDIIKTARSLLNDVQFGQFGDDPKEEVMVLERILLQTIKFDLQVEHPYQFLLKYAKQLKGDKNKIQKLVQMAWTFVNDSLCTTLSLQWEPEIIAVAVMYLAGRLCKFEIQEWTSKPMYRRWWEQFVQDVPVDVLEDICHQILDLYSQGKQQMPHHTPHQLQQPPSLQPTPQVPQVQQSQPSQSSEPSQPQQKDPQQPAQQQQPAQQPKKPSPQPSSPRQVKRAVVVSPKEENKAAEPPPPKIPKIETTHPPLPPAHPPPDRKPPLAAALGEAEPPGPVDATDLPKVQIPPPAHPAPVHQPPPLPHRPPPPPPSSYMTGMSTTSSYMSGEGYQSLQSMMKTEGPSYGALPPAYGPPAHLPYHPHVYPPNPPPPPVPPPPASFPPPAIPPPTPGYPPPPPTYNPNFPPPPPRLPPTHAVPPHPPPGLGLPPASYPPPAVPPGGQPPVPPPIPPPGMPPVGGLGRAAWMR

For the molecule `Cc1ncsc1-c1ccc([C@H](C)NC(=O)[C@@H]2C[C@@H](O)CN2C(=O)[C@@H](NC(=O)CCOCCOCCOCCN2CCC[C@@H](Nc3ncc(Cl)c(Nc4ccccc4S(=O)(=O)C(C)C)n3)C2)C(C)(C)C)cc1` [Compound 1-16, (2S,4R)-1-((S)-14-(tert-butyl)-1-((R)-3-((5-chloro-4-((2-(isopropylsulfonyl)phenyl)amino)pyrimidin-2-yl)amino)piperidin-1-yl)-12-oxo-3,6,9-trioxa-13-azapentadecan-15-oyl)-4-hydroxy-N—((S)-1-(4-(4-methylthiazol-5-yl)phenyl)ethyl)pyrrolidine-2-carboxamide], in data set [1], the CDK12 degradation activity result is “+++ (“+++” indicates a greater than 90% degradation)”.
Still for that read-out and setting: for `O=C(COc1cccc2c1C(=O)N(C1CCC(=O)NC1=O)C2=O)NCCCCCCCN1CCC(C(=O)N2CCC[C@@H](Nc3ncc(Cl)c(-c4c[nH]c5ccccc45)n3)C2)CC1` (stereo partly drawn) [Compound 1-12, N-(7-(4-((R)-3-((5-chloro-4-(1H-indol-3-yl)pyrimidin-2-yl)amino)piperidine-1-carbonyl)piperidin-1-yl)heptyl)-2-((2-(2,6-dioxopiperidin-3-yl)-1,3-dioxoisoindolin-4-yl)oxy)acetamide] the value was “++ (“++” indicates 80% degradation)”; for `CC(C)S(=O)(=O)c1ccccc1Nc1nc(N[C@@H]2CCCN(CCCCCCCNC(=O)COc3cccc4c3C(=O)N(C3CCC(=O)NC3=O)C4=O)C2)ncc1Cl` (stereo partly drawn) [Compound 1-14, N-(7-((R)-3-((5-chloro-4-((2-(isopropylsulfonyl)phenyl)amino)pyrimidin-2-yl)amino)piperidin-1-yl)heptyl)-2-((2-(2,6-dioxopiperidin-3-yl)-1,3-dioxoisoindolin-4-yl)oxy)acetamide], “+++ (“+++” indicates a greater than 90% degradation)”.
For the molecule `Cc1ncsc1-c1ccc([C@H](C)NC(=O)[C@@H]2C[C@@H](O)CN2C(=O)[C@@H](NC(=O)CCCCCCCCCCN2CCC[C@@H](Nc3ncc(Cl)c(Nc4ccccc4S(=O)(=O)C(C)C)n3)C2)C(C)(C)C)cc1` [Compound 1-15, (2S,4R)-1-((S)-2-(11-((R)-3-((5-chloro-4-((2-(isopropylsulfonyl)phenyl)amino)pyrimidin-2-yl)amino)piperidin-1-yl)undecanamido)-3,3-dimethylbutanoyl)-4-hydroxy-N—((S)-1-(4-(4-methylthiazol-5-yl)phenyl)ethyl)pyrrolidine-2-carboxamide], in data set [1], the CDK12 degradation activity result is “+++ (“+++” indicates a greater than 90% degradation)”. In data set [2], the “AUC % Extrap” value turned out to be 6.27 % Extrap, the AUCINF_obs turned out to be 368545 ng·min/mL, the Cl_obs was 0.362 L/h/kg and the MRTINF_obs came out at 2.41 h. Also, in data set [2], the T1/2 came to 2.21 h, the Tmax came out at 4.8 min and the Vss_obs is listed as 0.84 L/kg.
On to `O=C(COc1cccc2c1C(=O)N(C1CCC(=O)NC1=O)C2=O)NCCCN1CCN(c2ccc(C(=O)N3CCC[C@@H](Nc4ncc(Cl)c(-c5c[nH]c6ccccc56)n4)C3)cc2)CC1` (stereo partly drawn) [Compound 1-10, N-(3-(4-(4-((R)-3-((5-chloro-4-(1H-indol-3-yl)pyrimidin-2-yl)amino)piperidine-1-carbonyl)phenyl)piperazin-1-yl)propyl)-2-((2-(2,6-dioxopiperidin-3-yl)-1,3-dioxoisoindolin-4-yl)oxy)acetamide], for which the CDK12 degradation activity entry in data set [1] is on record as “+ (“+” indicates 60% degradation of CDK12 at 100 nM)”.
The same measure, in the same setting: as for `O=C(COc1cccc2c1C(=O)N(C1CCC(=O)NC1=O)C2=O)NCCCCCCN1CCC[C@@H](Nc2ncc(Cl)c(-c3c[nH]c4ccccc34)n2)C1` (stereo partly drawn) [Compound I-2, N-(6-((R)-3-((5-chloro-4-(1H-indol-3-yl)pyrimidin-2-yl)amino)piperidin-1-yl)hexyl)-2-((2-(2,6-dioxopiperidin-3-yl)-1,3-dioxoisoindolin-4-yl)oxy)acetamide], the entry is “++ (“++” indicates 80% degradation)”.
Turning to `O=C(COc1cccc2c1C(=O)N(C1CCC(=O)NC1=O)C2=O)NCCCCCCCN1CCC[C@@H](Nc2ncc(Cl)c(-c3c[nH]c4ccccc34)n2)C1` (stereo partly drawn) [Compound I-1, N-(7-((R)-3-((5-chloro-4-(1H-indol-3-yl)pyrimidin-2-yl)amino)piperidin-1-yl)heptyl)-2-((2-(2,6-dioxopiperidin-3-yl)-1,3-dioxoisoindolin-4-yl)oxy)acetamide], the CDK12 degradation activity result in data set [1] is on record as “+++ (“+++” indicates a greater than 90% degradation)”. Besides, the “degradation of CDK12, CDK13, CDK9 after pre-treatment” value in data set [3] is recorded as “rescued”.
On to `O=C(COc1cccc2c1C(=O)N(C1CCC(=O)NC1=O)C2=O)NCCOCCOCCOCCN1CCC[C@@H](Nc2ncc(Cl)c(-c3c[nH]c4ccccc34)n2)C1` (stereo partly drawn) [Compound 1-5, N-(2-(2-(2-(2-((R)-3-((5-chloro-4-(1H-indol-3-yl)pyrimidin-2-yl)amino)piperidin-1-yl)ethoxy)ethoxy)ethoxy)ethyl)-2-((2-(2,6-dioxopiperidin-3-yl)-1,3-dioxoisoindolin-4-yl)oxy)acetamide], for which the CDK12 degradation activity entry in data set [1] is on record as “++ (“++” indicates 80% degradation)”.
The same measure, in the same setting: as for `O=C(COc1cccc2c1C(=O)N(C1CCC(=O)NC1=O)C2=O)NCCCCCN1CCN(c2ccc(C(=O)N3CCC[C@@H](Nc4ncc(Cl)c(-c5c[nH]c6ccccc56)n4)C3)cc2)CC1` (stereo partly drawn) [Compound 1-9, N-(5-(4-(4-((R)-3-((5-chloro-4-(1H-indol-3-yl)pyrimidin-2-yl)amino)piperidine-1-carbonyl)phenyl)piperazin-1-yl)pentyl)-2-((2-(2,6-dioxopiperidin-3-yl)-1,3-dioxoisoindolin-4-yl)oxy)acetamide], the entry is “++ (“++” indicates 80% degradation)”.
